Patent US20230271964A1, “5-AMINO-8-(4-PYRIDYL)-[1,2,4]TRIAZOLO[4,3-C]PYRIMIDIN-3-ONE COMPOUNDS FOR USE AGAINST CANCER” (ASTRAZENECA AB, priority 2020, published 2023)

How the values were obtained:
[1] = biological target: human adenosine A2A receptor (Homo sapiens (Human), UniProt P29274); assay: Adenosine receptor inhibition binding assay, [3H]ZM241385, HEK293 A2A receptor membranes; conditions: 1 nM [3H]ZM241385, HEK293-hA2A membranes, 25° C., 1 h, Ki from IC50 by Cheng-Prusoff; for Ki: read-out: A2A pKi (converted)
Method: (§1) Inhibition binding assays were performed using 0.2 µg of membranes prepared from HEK293 cells infected with BacMam human adenosine A2A receptor or 1.4 µg of membranes prepared from HEK293 cells infected with BacMam human adenosine A1 receptor. Membranes were incubated in 50 mM Tris-HCl (HEK293-hA2A; pH 7.4) or 50 mM Tris-HCl, 100 mM NaCl, 10 mM MgCl2 (CHO-hA1; pH 7.4) in the presence of varying concentrations of test compound and 1 nM [^3H]ZM241385 (HEK293-hA2A) or [^3H]DPCPX (CHO-hA1) at 25° C. for 1 h. The assay was then terminated by rapid filtration onto GF/B grade Unifilter plates using a TomTec cell harvester, followed by 5 × 0.5 ml washes with ddH2O. Nonspecific binding was defined in the presence of 1 µM CGS 15943 (HEK293-hA2A) or 1 µM DPCPX (CHO-hA1). Bound radioactivity was determined by liquid scintillation counting and inhibition curves were analysed using a four-parameter logistic equation. IC50 values were converted to Ki values with the Cheng-Prusoff equation using a KD value derived from saturation binding studies.

[2] = biological target: human adenosine A1 receptor (Homo sapiens (Human), UniProt P30542); assay: Adenosine receptor inhibition binding assay, [3H]DPCPX, A1 receptor membranes; conditions: 1 nM [3H]DPCPX, 25° C., 1 h, Ki from IC50 by Cheng-Prusoff; for Ki: read-out: A1 pKi (converted)
Method: as §1

Sequence of human adenosine A2A receptor (P29274 whole entry): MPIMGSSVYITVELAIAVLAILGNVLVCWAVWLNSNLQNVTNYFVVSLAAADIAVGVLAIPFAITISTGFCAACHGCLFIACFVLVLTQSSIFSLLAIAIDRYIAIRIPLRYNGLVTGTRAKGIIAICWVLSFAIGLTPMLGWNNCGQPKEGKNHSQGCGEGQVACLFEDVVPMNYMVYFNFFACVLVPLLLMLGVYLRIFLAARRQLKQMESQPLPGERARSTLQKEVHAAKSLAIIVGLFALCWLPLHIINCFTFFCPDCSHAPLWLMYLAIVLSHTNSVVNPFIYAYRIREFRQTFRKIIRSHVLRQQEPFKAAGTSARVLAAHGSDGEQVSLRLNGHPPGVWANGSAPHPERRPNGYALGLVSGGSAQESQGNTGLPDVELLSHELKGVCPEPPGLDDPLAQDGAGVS
Sequence of human adenosine A1 receptor (P30542 whole entry): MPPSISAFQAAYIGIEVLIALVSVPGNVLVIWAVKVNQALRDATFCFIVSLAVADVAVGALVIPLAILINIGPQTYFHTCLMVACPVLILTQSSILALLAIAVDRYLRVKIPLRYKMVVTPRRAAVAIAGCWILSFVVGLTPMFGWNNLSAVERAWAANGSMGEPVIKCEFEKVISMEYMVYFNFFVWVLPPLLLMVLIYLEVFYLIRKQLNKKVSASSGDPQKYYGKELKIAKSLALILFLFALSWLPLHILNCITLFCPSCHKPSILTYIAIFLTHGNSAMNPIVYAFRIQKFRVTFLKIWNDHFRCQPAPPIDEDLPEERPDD

SMILES	A2A pKi [1]	A1 pKi [2]	Ki [1] [nM]	Ki [2] [nM]
COc1cc(-c2c(-c3ccc(F)cc3)nc(N)n3c(=O)n(C[C@H]4CCCO4)nc23)cc(CO)n1 [Example 2-37, 5-amino-7-(4-fluorophenyl)-8-[2-(hydroxymethyl)-6-methoxy-4-pyridyl]-2-[[(2R)-tetrahydrofuran-2-yl]methyl]-[1,2,4]triazolo[4,3-c]pyrimidin-3-one]	9.0	5.5	–	–
Cc1cc(-c2c(-c3ccccc3)nc(N)n3c(=O)n(CCc4nnn(C)n4)nc23)cc(C)n1 [Example 1-6, 5-amino-8-(2,6-dimethyl-4-pyridyl)-2-[2-(2-methyltetrazol-5-yl)ethyl]-7-phenyl-[1,2,4]triazolo[4,3-c]pyrimidin-3-one]	7.2	5.7	–	–
Cc1cc(-c2c(-c3ccccc3)nc(N)n3c(=O)n(C4CCN(C)C4)nc23)cc(C)n1 (stereo not shown) [Example 2-3, 5-amino-8-(2,6-dimethyl-4-pyridyl)-2-(1-methylpyrrolidin-3-yl)-7-phenyl-[1,2,4]triazolo[4,3-c]pyrimidin-3-one]	7.8	6.1	–	–
Cc1cc(-c2c(-c3ccccc3)nc(N)n3c(=O)n(Cc4cocn4)nc23)cc(C)n1 [Example 1-10, 5-amino-8-(2,6-dimethyl-4-pyridyl)-2-(oxazol-4-ylmethyl)-7-phenyl-[1,2,4]triazolo[4,3-c]pyrimidin-3-one]	9.2	6.8	–	–
Cc1cc(-c2c(-c3ccccc3)nc(N)n3c(=O)n(Cc4cncn4C)nc23)cc(C)n1 [Example 1-18, 5-amino-8-(2,6-dimethyl-4-pyridyl)-2-[(3-methylimidazol-4-yl)methyl]-7-phenyl-[1,2,4]triazolo[4,3-c]pyrimidin-3-one]	8.5	6.9	–	–
[2H]c1c([2H])c([2H])c(-c2nc(N)n3c(=O)n(C[C@H]4CCCO4)nc3c2-c2cc(C)nc(CO)c2)c([2H])c1[2H] [Example 2-30, 5-amino-8-[2-(hydroxymethyl)-6-methyl-4-pyridyl]-7-(2,3,4,5,6-pentadeuteriophenyl)-2-[[(2R)-tetrahydrofuran-2-yl]methyl]-[1,2,4]triazolo[4,3-c]pyrimidin-3-one]	–	–	1	501
Cc1cc(-c2c(-c3ccccc3)nc(N)n3c(=O)n(C[C@H]4CCCN4C)nc23)cc(C)n1 [Example 2-7, 5-amino-8-(2,6-dimethyl-4-pyridyl)-2-[[(2R)-1-methylpyrrolidin-2-yl]methyl]-7-phenyl-[1,2,4]triazolo[4,3-c]pyrimidin-3-one]	9.3	7.4	–	–
Cc1cc(-c2c(-c3ccccc3)nc(N)n3c(=O)n(Cc4nncn4C)nc23)cc(C)n1 [Example 1-28, 5-amino-8-(2,6-dimethyl-4-pyridyl)-2-[(4-methyl-1,2,4-triazol-3-yl)methyl]-7-phenyl-[1,2,4]triazolo[4,3-c]pyrimidin-3-one]	7.7	6.5	–	–
Cc1cc(-c2c(-c3ccccc3)nc(N)n3c(=O)n(Cc4nccn4C)nc23)cc(C)n1 [Example 1-11, 5-amino-8-(2,6-dimethyl-4-pyridyl)-2-[(1-methylimidazol-2-yl)methyl]-7-phenyl-[1,2,4]triazolo[4,3-c]pyrimidin-3-one]	9.8	7.8	–	–
CCn1nccc1CCn1nc2c(-c3cc(C)nc(C)c3)c(-c3ccccc3)nc(N)n2c1=O [Example 1-7, 5-amino-8-(2,6-dimethyl-4-pyridyl)-2-[2-(2-ethylpyrazol-3-yl)ethyl]-7-phenyl-[1,2,4]triazolo[4,3-c]pyrimidin-3-one]	8.0	6.6	–	–
Cc1cc(-c2c(-c3ccccc3)nc(N)n3c(=O)n(CCc4nccn4C)nc23)cc(C)n1 [Example 1-2, 5-amino-8-(2,6-dimethyl-4-pyridyl)-2-[2-(1-methylimidazol-2-yl)ethyl]-7-phenyl-[1,2,4]triazolo[4,3-c]pyrimidin-3-one]	8.2	6.1	–	–
Cc1cc(-c2c(-c3ccccc3)nc(N)n3c(=O)n(C[C@H]4C[C@H](F)CN4)nc23)cc(C)n1 [Example 2-18, 5-amino-8-(2,6-dimethyl-4-pyridyl)-2-[[(2R,4S)-4-fluoropyrrolidin-2-yl]methyl]-7-phenyl-[1,2,4]triazolo[4,3-c]pyrimidin-3-one]	8.2	6.4	–	–
Cc1cc(-c2c(-c3ccccc3)nc(N)n3c(=O)n(CC4CCCN4C(=O)OC(C)(C)C)nc23)cc(C)n1 (stereo not shown) [Example 2-4, tert-butyl 2-[[5-amino-8-(2,6-dimethyl-4-pyridyl)-3-oxo-7-phenyl-[1,2,4]triazolo[4,3-c]pyrimidin-2-yl]methyl]pyrrolidine-1-carboxylate]	7.9	6.6	–	–
Cc1cc(-c2c(-c3ccccc3)nc(N)n3c(=O)n(CC4CCCN4C)nc23)cc(C)n1 (stereo not shown) [Example 2-6, 5-amino-8-(2,6-dimethyl-4-pyridyl)-2-[(1-methylpyrrolidin-2-yl)methyl]-7-phenyl-[1,2,4]triazolo[4,3-c]pyrimidin-3-one]	9.1	6.2	–	–
Cc1cc(-c2c(-c3ccccc3)nc(N)n3c(=O)n(C4CCNC4)nc23)cc(C)n1 (stereo not shown) [Example 2-2, 5-amino-8-(2,6-dimethyl-4-pyridyl)-7-phenyl-2-pyrrolidin-3-yl-[1,2,4]triazolo[4,3-c]pyrimidin-3-one]	7.4	5.7	–	–
Cc1cc(-c2c(-c3ccccc3)nc(N)n3c(=O)n(CCc4nnn[nH]4)nc23)cc(C)n1 [Example 1-4, 5-amino-8-(2,6-dimethyl-4-pyridyl)-7-phenyl-2-[2-(1H-tetrazol-5-yl)ethyl]-[1,2,4]triazolo[4,3-c]pyrimidin-3-one]	6.4	<5.4	–	–
Cc1cc(-c2c(-c3ccc(F)cc3)nc(N)n3c(=O)n(C[C@H]4CCCO4)nc23)cc(CO)n1 [Example 2-31, 5-amino-7-(4-fluorophenyl)-8-[2-(hydroxymethyl)-6-methyl-4-pyridyl]-2-[[(2R)-tetrahydrofuran-2-yl]methyl]-[1,2,4]triazolo[4,3-c]pyrimidin-3-one]	8.4	6.1	–	–
Cc1cc(-c2c(-c3ccccc3)nc(N)n3c(=O)n(Cc4cnn(C)n4)nc23)cc(C)n1 [Example 1-30, 5-amino-8-(2,6-dimethyl-4-pyridyl)-2-[(2-methyltriazol-4-yl)methyl]-7-phenyl-[1,2,4]triazolo[4,3-c]pyrimidin-3-one]	8.9	6.6	–	–
Cc1cc(-c2c(-c3ccccc3)nc(N)n3c(=O)n(C[C@H]4C[C@@H](O)CN4)nc23)cc(C)n1 [Example 2-23, 5-amino-8-(2,6-dimethyl-4-pyridyl)-2-[[(2R,4R)-4-hydroxypyrrolidin-2-yl]methyl]-7-phenyl-[1,2,4]triazolo[4,3-c]pyrimidin-3-one]	8.2	5.9	–	–
COc1cc(-c2c(-c3ccc(F)cc3)nc(N)n3c(=O)n(Cc4nccn4C)nc23)cc(CO)n1 [Example 1-65, 5-amino-7-(4-fluorophenyl)-8-[2-(hydroxymethyl)-6-methoxy-4-pyridyl]-2-[(1-methylimidazol-2-yl)methyl]-[1,2,4]triazolo[4,3-c]pyrimidin-3-one]	10.0	7.1	–	–
COCCN1CCC[C@@H]1Cn1nc2c(-c3cc(C)nc(C)c3)c(-c3ccccc3)nc(N)n2c1=O [Example 2-10, 5-amino-8-(2,6-dimethyl-4-pyridyl)-2-[[(2R)-1-(2-methoxyethyl)pyrrolidin-2-yl]methyl]-7-phenyl-[1,2,4]triazolo[4,3-c]pyrimidin-3-one]	8.2	6.3	–	–
Cc1cc(-c2c(-c3ccccc3)nc(N)n3c(=O)n(Cc4nnc(C)o4)nc23)cc(C)n1 [Example 1-17, 5-amino-8-(2,6-dimethyl-4-pyridyl)-2-[(5-methyl-1,3,4-oxadiazol-2-yl)methyl]-7-phenyl-[1,2,4]triazolo[4,3-c]pyrimidin-3-one]	8.2	6.2	–	–
[2H]c1c([2H])c([2H])c(-c2nc(N)n3c(=O)n(C[C@H]4CCCO4)nc3c2-c2cc(CO)nc(OC)c2)c([2H])c1[2H] [Example 2-36, 5-amino-8-[2-(hydroxymethyl)-6-methoxy-4-pyridyl]-7-(2,3,4,5,6-pentadeuteriophenyl)-2-[[(2R)-tetrahydrofuran-2-yl]methyl]-[1,2,4]triazolo[4,3-c]pyrimidin-3-one]	–	–	0.794	1260
